How the values were obtained:
[1] = Pharmacokinetic study of pemafibrate in liver cirrhosis patients (plasma unchanged pemafibrate, LC-MS-MS); type: in vivo, human; conditions: for AUC0-t, ratio of geometric mean to persons with normal liver function / Cmax, ratio of geometric mean to persons with normal liver function: single oral dose 0.2 mg, fasting
Method: To investigate the effect of liver cirrhosis on the pharmacokinetics of pemafibrate, a clinical study was conducted on mild liver cirrhosis patients, moderate liver cirrhosis patients, fatty liver patients, and persons with normal liver function.
Subjects were classified into four groups according to the criteria in Table 2. As a result, the subjects included 8 mild liver cirrhosis patients, 6 moderate liver cirrhosis, patients, 10 fatty liver patients, and 8 persons with normal liver function.
2. Test Method (1) Administration and Measurement Subjects received a single oral dose of 0.2 mg of study drug (pemafibrate) in the fasting state (fasting for at least 10 hours).
Blood samples were collected at a total of 16 time points immediately before administration of the investigational product and 0.25, 0.5, 1, 1.5, 2, 3, 4, 6, 8, 10, 12, 16, 24, 36, and 48 hours after administration of the investigational product, and plasma concentrations of unchanged pemafibrate were measured by high performance liquid chromatography/tandem mass spectrometry (High-Performance Liquid Chromatography/Tandem Mass Spectrometry: LC-MS-MS method).
To investigate the pharmacokinetics, the pharmacokinetic parameters (maximum concentration (Cmax) and area under the concentration-time curves […] (AUC0-t) of unchanged pemafibrate were evaluated by calculating the ratio of the geometric mean values of the groups of patients with hepatic dysfunction to those with normal hepatic function and their 90% confidence intervals.

[2] = literature statement; cited from earlier work
[3] = fatty liver patients (n = 10) vs normal liver function (n = 8), plasma unchanged pemafibrate
[4] = mild liver cirrhosis Child-Pugh class A (n = 8) vs normal liver function (n = 8)
[5] = moderate liver cirrhosis Child-Pugh class B (n = 6) vs normal liver function (n = 8)

| SMILES | geometric mean values of Cmax and AUC0-t compared with the liver function normal group ([1]; fatty liver patient group) | AUC0-t, ratio of geometric mean to persons with normal liver function [1, 3] | Cmax, ratio of geometric mean to persons with normal liver function [1, 3] | AUC0-t, ratio of geometric mean to persons with normal liver function [1, 4] | Cmax, ratio of geometric mean to persons with normal liver function [1, 4] | ratio of geometric mean values of Cmax and AUC0-t, liver cirrhosis patients to persons with normal liver function ([1]; mild liver cirrhosis patients (Child-Pugh Class A)) | AUC0-t, ratio of geometric mean to persons with normal liver function [1, 5] | Cmax, ratio of geometric mean to persons with normal liver function [1, 5] | ratio of geometric mean values of Cmax and AUC0-t, liver cirrhosis patients to persons with normal liver function ([1]; moderate liver cirrhosis patients (Child-Pugh Class B)) | route of excretion [2] |
| --- | --- | --- | --- | --- | --- | --- | --- | --- | --- | --- |
| CC[C@@H](Oc1cccc(CN(CCCOc2ccc(OC)cc2)c2nc3ccccc3o2)c1)C(=O)O [pemafibrate, (2R)-2-[3-({1,3-benzoxazol-2-yl[3-(4-methoxyphenoxy)propyl]amino}methyl)phenoxy]butanoic acid] | about 1.2 times | 1.194 | 1.198 | 2.076 | 2.329 | approximately 2 fold | 4.191 | 3.882 | approximately 4 fold | rarely excreted via kidneys |
| CC(C)(Oc1ccc(CCNC(=O)c2ccc(Cl)cc2)cc1)C(=O)O [bezafibrate] | – | – | – | – | – | – | – | – | – | excreted in the urine primarily via kidneys |
